US9611500B2, “Method for detecting the presence of the viable cells in an endodontic sample” (KINGS COLLEGE LONDON, priority 2011, dated 2017)
Marks after values point to notes of the source that are not given here.

Tested on: Multispecies mature biofilm from clinical isolates (Actinomyces radicidentis, Enterococcus faecalis, Propionibacterium acnes, Streptococcus epidermidis …)
Assay: Viable post-experimental counts of multi-species biofilms on root halves after irrigation
Assay type: cell-based
Details: 1% NaOCl solution irrigation (5 ml) of root canals of extracted teeth with two-week biofilm; paper point sampling; FAA plates incubated anaerobically 7 days; triplicates
From the text: Twenty freshly extracted, single rooted teeth were obtained under ethical Approval (South East London ethical approval 10/H0804/056). Each tooth had the crown removed to obtain 15 mm long specimens, using a 0.3 mm thickness diamond wafering blade (Extec, Enfield, Conn., USA) on a 11-1180 Isomet low speed saw (Buehler, Düsseldorf, Germany). Root canal patency was confirmed using an ISO 10 K-file. Canals were instrumented with Gates Glidden (nr. 2-4) for coronal flaring followed by ProTaper F3 instrumentation and apical instrumentation with an ISO 45 K-file 1 mm short of the working length. Irrigation throughout the instrumentation was undertaken with sterile saline. […]
Multispecies mature biofilm from clinical isolates, identified through sequencing (Actinomyces radicidentis, Enterococcus faecalis, Propionibacterium acnes, Streptococcus epidermidis, Streptococcus oxalis) were grown in 24 multiwell plates for two weeks on root halves using a modification of the established 5-day biofilm protocol (Gmür & Guggenheim 1983). […] The turbidity was adjusted with fresh mFUM to OD at 540 nm (Labsystems iEMS Reader MF) to 0.5. […]
After each root had been subjected to its respective irrigation protocol and imaging steps, the root halves were aseptically placed in a 9 cm petri dish (SLS, East Riding of Yorkshire, UK). […] After the incubation, the numbers of colonies on FAA plates were counted. […]

## OCl [Sodium hypochlorite]
  Microbial counts expressed as log10 (Mean ± SE) after anaerobic growth: 0.51* Log10
